# According to the supplement of paper PMC10307832:
# Legend:
# Experiment in all cases: relative viability (nuclei count vs DMSO), 5 days (fraction); higher = more cells survive
# [1] = compound: C=CC(=O)N1CCC[C@@H](n2nc(-c3ccc(Oc4ccccc4)cc3)c3c(N)ncnc32)C1 [Ibrutinib] + CC(C)C[C@H](NC(=O)[C@H](Cc1ccccc1)NC(=O)c1cnccn1)B(O)O [Bortezomib] (partner 0.002 µM)
# Outline: (§1)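 Relative viability divides the nuclei count in treated wells by that in vehicle wells. Lung cancer cell lines were seeded in 1536-well plates, dosed by pin tool the next day, and fixed and stained after 5 days in one step with final 0.05% Triton X-100, 1% formaldehyde and 1 ug/ml Hoechst. Dosing was a single drug or a fixed anchor-drug dose plus five library-drug doses (not always all listed) in √10 steps, and values are medians of duplicate plates imaged at 4×.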
# [2] = compound: C=CC(=O)N1CCC[C@@H](n2nc(-c3ccc(Oc4ccccc4)cc3)c3c(N)ncnc32)C1 [Ibrutinib] + C[C@@H](Oc1cc(-c2cnn(C3CCNCC3)c2)cnc1N)c1c(Cl)ccc(F)c1Cl [Crizotinib] (partner 1 µM)
# Outline: as §1
# [3] = compound: C=CC(=O)Nc1cc(-n2c(=O)ccc3cnc4ccc(-c5ccc(NS(C)(=O)=O)cc5)cc4c32)ccc1C [BMX-IN-1] + Nc1ncn([C@H]2C[C@H](O)[C@@H](CO)O2)c(=O)n1 [Decitabine] (partner 2 µM)
# Outline: as §1
# [4] = compound: C=CCc1cccc(/C=N/NC(=O)CN2CCN(Cc3ccccc3)CC2)c1O [PAC-1] + CCNC(=O)c1noc(-c2cc(C(C)C)c(O)cc2O)c1-c1ccc(CN2CCOCC2)cc1 [Luminespib] (partner 0.01 µM)
# Outline: as §1
Cell Line,relative viability ([1]; first compound 0.005 µM),relative viability ([1]; first compound 0.01581 µM),relative viability ([1]; first compound 0.05 µM),relative viability ([1]; first compound 0.1581 µM),relative viability ([1]; first compound 0.5 µM),relative viability ([2]; first compound 0.005 µM),relative viability ([2]; first compound 0.01581 µM),relative viability ([2]; first compound 0.05 µM),relative viability ([2]; first compound 0.1581 µM),relative viability ([2]; first compound 0.5 µM),relative viability ([3]; first compound 0.02 µM),relative viability ([3]; first compound 0.2 µM),relative viability ([3]; first compound 0.6325 µM),relative viability ([3]; first compound 2 µM),relative viability ([4]; first compound 0.02 µM),relative viability ([4]; first compound 0.06325 µM),relative viability ([4]; first compound 0.2 µM),relative viability ([4]; first compound 2 µM)
UMC-11,0.664,0.637,0.898,0.654,0.736,0.538,0.598,0.596,0.681,0.57,0.604,0.526,0.66,0.664,1.05,0.986,1.04,0.928
NCI-H2087,0.755,0.741,0.851,0.844,0.889,0.849,0.949,1.04,0.872,0.862,0.29,0.343,0.239,0.325,0.174,0.243,0.21,0.182
NCI-H3122,1.07,1.05,1.08,0.955,1.02,0.237,0.263,0.254,0.253,0.244,0.421,0.33,0.548,0.514,0.119,0.0845,0.0804,0.0955
NCI-H661,0.833,0.748,0.652,0.838,0.611,,,1.09,0.904,0.873,0.617,0.528,0.634,0.525,0.951,0.882,0.821,0.736
NCI-H838,0.781,0.729,0.687,0.741,0.673,0.881,0.842,0.979,0.873,0.793,0.5,0.439,0.466,0.444,0.254,0.374,0.238,0.301
ABC-1,0.36,0.271,0.33,0.33,0.306,1.21,1.03,1.57,1.56,1.03,1.22,1.31,1.15,1.16,0.526,0.803,0.682,0.519
NCI-H441,0.518,0.498,0.45,0.575,0.479,0.669,0.842,0.919,0.707,0.881,0.256,0.246,0.321,0.233,0.285,0.254,0.471,0.335
NCI-H2126,,1.13,1.12,1.11,1.1,,1,0.994,1.06,0.936,0.522,0.515,0.59,0.601,0.989,0.889,0.93,0.948
NCI-H1651,0.953,0.971,,0.822,0.967,0.952,0.871,0.819,0.818,0.88,0.5,0.667,0.722,0.593,0.789,0.859,0.744,0.905
NCI-H1734,0.799,0.923,1.02,0.989,0.929,0.587,0.689,0.675,0.761,0.67,0.534,0.568,0.522,0.831,0.169,0.178,0.18,0.189
NCI-H1915,,0.996,1,1.05,0.979,,0.858,0.92,0.921,0.897,0.282,0.272,0.284,0.273,0.792,0.845,0.68,0.779
NCI-H2023,0.848,0.819,0.949,1.04,0.876,0.55,0.637,0.423,0.603,0.356,0.236,0.247,0.223,0.295,0.741,0.703,0.667,0.444
NCI-H1755,0.914,0.983,1.02,0.95,0.969,0.832,,0.909,0.909,0.852,0.644,0.683,0.795,0.758,0.482,0.306,0.502,0.563
EPLC-272H,,0.881,0.924,0.839,0.753,,0.806,0.809,1.06,0.522,0.29,0.397,0.407,0.355,0.296,0.262,0.202,0.277
HCC-827,1.19,1.05,1.15,0.982,0.807,0.89,0.923,0.927,0.94,0.184,0.27,0.31,0.342,0.292,0.634,0.465,0.649,0.609
NCI-H2085,,0.954,0.983,0.963,0.963,0.92,0.852,0.772,0.918,0.706,0.553,0.595,0.564,0.597,0.42,0.496,0.43,0.484
LCLC-97TM1,0.447,0.851,0.385,0.153,0.732,0.365,0.369,,0.553,0.313,0.259,0.224,0.208,0.264,0.74,0.916,0.621,0.868
EKVX,0.894,0.929,0.975,0.925,0.489,0.995,0.743,1.05,0.964,0.562,0.333,0.281,0.617,0.381,0.917,0.855,0.815,0.837

Cell Line,relative viability ([1]; first compound 0.005 µM),relative viability ([1]; first compound 0.01581 µM),relative viability ([1]; first compound 0.05 µM),relative viability ([1]; first compound 0.1581 µM),relative viability ([1]; first compound 0.5 µM),relative viability ([2]; first compound 0.005 µM),relative viability ([2]; first compound 0.01581 µM),relative viability ([2]; first compound 0.05 µM),relative viability ([2]; first compound 0.1581 µM),relative viability ([2]; first compound 0.5 µM),relative viability ([3]; first compound 0.02 µM),relative viability ([3]; first compound 0.2 µM),relative viability ([3]; first compound 0.6325 µM),relative viability ([3]; first compound 2 µM),relative viability ([4]; first compound 0.02 µM),relative viability ([4]; first compound 0.06325 µM),relative viability ([4]; first compound 0.2 µM),relative viability ([4]; first compound 2 µM)
PC-14,0.891,0.878,0.835,0.819,0.744,0.886,0.968,0.896,0.901,0.563,0.18,0.227,0.292,0.305,0.127,0.172,0.151,0.252
NCI-H1355,,1.14,1.18,1.2,1.16,,0.957,0.971,1.15,0.827,0.357,0.368,0.355,0.401,0.762,0.668,0.797,0.778
NCI-H1792,,0.984,1,0.85,0.93,0.979,0.989,1.13,0.654,0.961,0.539,0.615,0.525,0.568,0.355,0.484,0.47,0.416
NCI-H2009,1.09,1,0.988,0.864,1.05,1.04,1.04,1.08,1.11,1.1,0.381,0.402,0.41,0.368,1.01,1.04,1.03,1.01
HARA,1.02,1.14,0.987,0.976,0.937,1.16,0.913,1.03,1.08,0.883,0.752,0.575,0.664,0.704,0.554,0.674,0.793,0.937
H3255,0.583,0.889,0.51,0.617,0.313,0.873,0.81,0.729,0.874,0.429,0.784,0.631,0.812,0.694,0.905,0.852,0.672,0.804
SW 1573,0.771,0.97,0.8,0.992,0.984,0.87,0.807,0.803,0.986,0.77,0.575,0.532,0.46,0.459,0.214,0.175,0.223,0.371
NCI-H1666,0.768,0.79,0.802,0.695,0.977,1.01,0.864,0.904,0.932,0.697,0.673,0.746,0.839,0.716,0.981,1.08,1.08,0.864
NCI-H1993,0.728,0.882,0.789,,0.681,0.843,0.744,0.704,,0.713,0.678,0.525,0.53,0.631,0.951,0.861,0.399,0.789
EMC-BAC-2,1,1,0.997,1.05,1.01,0.79,0.679,0.731,0.813,0.726,0.95,0.993,1.1,1.03,1.19,1.17,1.18,1.15
NCI-H1975,0.417,0.328,0.274,0.383,0.226,0.986,0.859,0.88,0.96,0.558,0.362,0.345,0.42,0.417,0.242,0.188,0.253,0.167
NCI-H650,,0.706,,1.12,0.932,,0.656,,0.863,0.805,0.321,0.303,0.318,0.346,0.701,0.929,0.882,0.748
NCI-H1437,0.647,0.476,0.449,0.482,0.603,0.848,0.874,0.901,1.02,0.916,0.672,0.603,0.623,0.575,1.15,1.13,1.06,0.907
NCI-H2347,,0.982,1.03,,0.871,0.679,0.684,0.739,0.592,0.696,0.647,0.678,0.608,0.75,0.302,0.427,0.536,0.583
NCI-H520,0.567,0.45,0.553,0.662,0.338,0.725,0.578,0.727,0.704,0.861,0.549,0.494,0.449,0.529,0.269,0.248,0.252,0.216
COR-L23,1.13,0.992,0.983,0.917,1.1,0.707,0.641,0.693,0.644,0.653,0.467,0.45,0.484,0.438,0.569,0.71,0.629,0.625
NCI-H2405,1.07,0.977,0.948,0.856,0.767,,0.886,0.779,0.824,0.8,0.702,0.723,0.851,0.716,0.611,0.652,0.656,0.789
A-427,0.906,0.962,0.981,0.985,0.916,0.89,0.87,1.03,0.875,0.832,0.544,0.554,0.559,0.551,1.13,0.769,0.988,0.951
